Experimental data as given in patent US12172007B2, “Combination therapy of electric fields and an additional treatment for cancer and imaging” (University of Cincinnati, priority 2019, dated 2024).

Key:
[1] = Relaxivity of contrast agent at 7 T; type: physicochemical
Text: The use of a paramagnetic gadolinium chelate-loaded SapC-DOPS (Gd-DTPA-BSA/SapC-DOPS) vesicles as a targeted contrast agent for imaging glioblastoma multiforme tumors are also useful in the present invention. Gd-DTPA-BSA/SapC-DOPS vesicles and Gd-DTPA display a similar relaxivity of 3.32 and 2.80 (s·mM)−1, respectively, at 7 T. According to the in vivo experiments, the R1 values of the tumor before injection of Gd-DTPA-BSA/SapC-DOPS vesicles, sham injected brain, and contralateral normal brain were 0.4676±0.010 s−1, 0.5216±0.034 s−1, and 0.5596±0.003 s−1, respectively. […] At 24 h postinjection, the tumor R1 remained elevated (7.9±1.5%, P<0.05) compared with the normal and sham brains, but it was statistically similar to the controls (4.7±2.0%, p>0.05). […] At 4 h, 10 h, and 20 h, the increase in T1 relaxation time is higher in the sham normal brain compared with sham tumor. By 24 h postinjection, the T1-weighted signal is similar in both tissues.

[2] = system: non-small cell lung cancer (NSCLC); details: cited from earlier work
[3] = system: HER2-negative breast cancer; details: phase I, cited from earlier work

Compound | relaxivity [1] [s/mM] | overall survival, Bavituximab + docetaxel versus docetaxel alone ([2]; advanced, previously treated NSCLC, phase III) | overall survival versus placebo-treated patients ([2]; patients pre-treated with immune checkpoint inhibitors) | overall response rate ([3]; with paclitaxel as adjuvant therapy) [%] | tolerability ([3]; with paclitaxel)
O=C([O-])CN(CCN(CC(=O)[O-])CC(=O)O)CCN(CC(=O)[O-])CC(=O)O.[Gd+3] [Gd-DTPA] | 2.80 |  |  |  | 
Bavituximab: chimeric monoclonal antibody that binds to PS |  | no significant difference | increased overall survival | 85 | well tolerated
